The record followed here is paper PMC8000814, “Structure-Based Virtual Screening: Identification of a Novel NS2B-NS3 Protease Inhibitor with Potent Antiviral Activity against Zika and Dengue Viruses” (Microorganisms, 2021).

In the test the target is T1, ZIKV NS2B-NS3 protease (Zika virus ZIKV/H. sapiens/FrenchPolynesia/10087PF/2013, UniProt A0A024B7W1).
T1 construct: recombinant NS2B-NS3 protease cut from the ZIKV genome polyprotein; codon-optimized synthetic gene in pET22b; His-tag fused; E. coli BL21(DE3); Ni-NTA purified
T1 sequence (A0A024B7W1 1503-1680): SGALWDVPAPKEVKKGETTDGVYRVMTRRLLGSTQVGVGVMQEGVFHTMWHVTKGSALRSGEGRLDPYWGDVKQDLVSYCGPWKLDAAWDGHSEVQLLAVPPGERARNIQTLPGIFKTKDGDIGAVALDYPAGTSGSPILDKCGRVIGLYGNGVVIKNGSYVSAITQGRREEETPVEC
Nature of the test: fluorescence-based protease inhibition assay, ex […] nm / em […] nm. Format: biochemical. Particulars: read-out: apparent IC50.

A word on the IC50: it is the concentration that inhibits the measured activity by half.

As to `O=[N+]([O-])c1ccc(Nc2ccc3[nH]ncc3c2)nc1N1CCNCC1` [compound 1], the concentration for half-maximal inhibition (IC50) amounted to 1.5 µM.
